Here are results for five molecules from patent US20230416330A1, “Optimized GIP Peptide Analogues” (Antag Therapeutics ApS, priority 2019, published 2023).

A short description of data set [1]: Solubility by visual inspection of peptide solutions. Format: physicochemical. The procedure:
(§1) Peptides were either dissolved in sodium phosphate buffer (50 mM, pH 7.4, filtered) or dissolved in ultrapure (MilliQ) water (adjusted to pH 7.4 with NaOH, filtered) (see Table 3). All peptide samples were prepared to a concentration of 1, 5, 7.5 or 15 mg/ml. All samples, with the exception of reference peptides GIP(3-30), AT158, and AT482 dissolved readily and produced clear and colorless solutions with gentle mixing. Peptide samples were subsequently filtered through 0.22 μm nylon filters (Q-Max® RR syringe filter, 13 mm, Frisenette, DK) to produce particle-free solutions. All samples were added to a 96-well plate reader for the ThT assay at t=0.
Clear visual appearance may be taken as an indicator of the immediate solubility of the peptide. […] Thus, A13Aib and/or N24E substitutions appear to increase solubility.

A short description of data set [2]: Physical stability: fibril formation in Thioflavin T (ThT) assay with agitation. Format: physicochemical. The note with it: 25° C., agitation. The procedure:
Continuous measurement of the fluorescence emission at 486 nm can be used as a measure of fibrillation behavior of peptides and proteins. The time until onset of fibrillation or fibrillation lag time is estimated here by defining the lag time (Tlag) as the point in time where the signal relative to the pre-transition baseline has reached 10% of the post-transition baseline.
50 mM sodium phosphate buffer for dissolving some samples was prepared in ultrapure water (Milli-Q® Reference A+ System, Merck) with a resistivity of 18.2 MΩ·cm. The buffer was adjusted to pH 7.4 and filtered.
The ultrapure water (MilliQ) for dissolving some samples was adjusted to pH 7.4 with NaOH and filtered prior to sample preparation.
as §1
For each sample, […] ThT (1 mM) was added to 1.2 mL peptide solution. From this sample mixture, an amount of 200 uL/well was pipetted into four or five wells (n=4 or 5). Blank samples (buffer+ThT) were also included. One 3 mm silica bead was added to each well containing samples and the plate was subjected to orbital rotation at 300 rpm to agitate and stress the samples. The temperature was kept at 25° C. throughout the measurement.

Starred links: 1 amine or outer side, 2 acyl side, 3 side chain; linkers in the order of their positions; H or OH if unused. Non-standard residues stand in square brackets, D forms with d. Residues, ends and D or L forms follow the SMILES beside them. Groups on a side chain read outwards from the residue. *: point of attachment. C18 diacid = O=C(O)CCCCCCCCCCCCCCCCC(=O)*; C16 diacid = O=C(O)CCCCCCCCCCCCCCC(=O)*; γGlu = O=C(O)[C@H](CCC(=O)[*:2])N[*:1]; Glutaryl = O=C(CCCC(=O)[*:2])[*:1]; Nle = CCCC[C@H](N)C(=O)O; AEEA = NCCOCCOCC(=O)O; Aib = CC(C)(N)C(=O)O Where only a bound is given, the exact number is not on record here.

As for `CC[C@H](C)[C@H](NC(=O)[C@H](CCCCN)NC(=O)[C@H](CCC(=O)O)NC(=O)[C@H](CC(C)C)NC(=O)C(C)(C)NC(=O)[C@@H](NC(=O)[C@H](CO)NC(=O)[C@H](Cc1ccc(O)cc1)NC(=O)[C@H](CCC(=O)O)NC(=O)[C@H](CO)NC(=O)[C@@H](NC(=O)[C@H](Cc1ccccc1)NC(=O)[C@@H](NC(=O)CNC(=O)CCCC(=O)O)[C@@H](C)O)[C@@H](C)CC)[C@@H](C)CC)C(=O)N[C@@H](CCCCNC(=O)CCCCCCCCCCCCCCC(=O)O)C(=O)N[C@@H](CCC(N)=O)C(=O)N[C@@H](CCC(N)=O)C(=O)N[C@@H](CCC(=O)O)C(=O)N[C@@H](Cc1ccccc1)C(=O)N[C@H](C(=O)N[C@@H](CCC(=O)O)C(=O)N[C@@H](Cc1c[nH]c2ccccc12)C(=O)N[C@@H](CC(C)C)C(=O)N[C@@H](CC(C)C)C(=O)N[C@@H](C)C(=O)N[C@@H](CCC(N)=O)C(=O)N[C@@H](CCCCN)C(=O)N1CCC[C@H]1C(=O)N[C@@H](CO)C(=O)N[C@@H](CO)C(=O)NCC(=O)N[C@@H](C)C(=O)N1CCC[C@H]1C(=O)N1CCC[C@H]1C(=O)N1CCC[C@H]1C(=O)N[C@@H](CO)C(=O)O)C(C)C` [AT717] (Glutaryl-GTFISEYSI[Aib]LEKIK(C16 diacid)QQEFVEWLLAQKPSSGAPPPS-OH), the Visual appearance result in data set [1] (1 mg/ml, TFA, Phosphate (7.4)) is given as “Clear”; in data set [1] (7.5 mg/ml, Na, MilliQ (8)) it was “Clear”; in data set [1] (15 mg/ml, Na, MilliQ (8)) it was “Clear”. Further, the “Avr lag time (h)” value is listed as “fnd (Fnd = fibrils not detected within experiment time (96 hours) with agitation.)” in data set [2] (1 mg/ml, TFA, Phosphate (7.4)); “fnd (Fnd = fibrils not detected within experiment time (96 hours) with agitation.)” in data set [2] (7.5 mg/ml, Na, MilliQ (8)); “fnd (Fnd = fibrils not detected within experiment time (96 hours) with agitation.)” in data set [2] (15 mg/ml, Na, MilliQ (8)).

Take `CC[C@H](C)[C@H](NC(=O)[C@H](C)NC(=O)[C@H](CC(=O)O)NC(=O)[C@H](CCSC)NC(=O)[C@H](C)NC(=O)[C@@H](NC(=O)[C@H](CO)NC(=O)[C@H](Cc1ccc(O)cc1)NC(=O)[C@H](CC(=O)O)NC(=O)[C@H](CO)NC(=O)[C@@H](NC(=O)[C@H](Cc1ccccc1)NC(=O)[C@@H](NC(=O)CNC(=O)[C@@H](N)CCC(=O)O)[C@@H](C)O)[C@@H](C)CC)[C@@H](C)CC)C(=O)N[C@@H](CCCCNC(=O)CCCCCCCCCCCCCCC(=O)O)C(=O)N[C@@H](CCC(N)=O)C(=O)N[C@@H](CCC(N)=O)C(=O)N[C@@H](CC(=O)O)C(=O)N[C@@H](Cc1ccccc1)C(=O)N[C@H](C(=O)N[C@@H](CCC(=O)O)C(=O)N[C@@H](Cc1c[nH]c2ccccc12)C(=O)N[C@@H](CC(C)C)C(=O)N[C@@H](CC(C)C)C(=O)N[C@@H](C)C(=O)N[C@@H](CCC(N)=O)C(=O)N[C@@H](CCCCN)C(=O)N1CCC[C@H]1C(=O)N[C@@H](CO)C(=O)N[C@@H](CO)C(=O)NCC(=O)N[C@@H](C)C(=O)N1CCC[C@H]1C(=O)N1CCC[C@H]1C(=O)N1CCC[C@H]1C(=O)N[C@@H](CO)C(=O)O)C(C)C` [AT748] (H-EGTFISDYSIAMDAIK(C16 diacid)QQDFVEWLLAQKPSSGAPPPS-OH; N-terminus assumed): the Visual appearance entry in data set [1] (1 mg/ml, TFA, Phosphate (7.4)) is listed as “Clear”. The “Avr lag time” value in data set [2] (1 mg/ml, TFA, Phosphate (7.4)) is on record as under 24 h.

`CC[C@H](C)[C@H](NC(=O)[C@H](C)NC(=O)[C@H](Cc1ccc(O)cc1)NC(=O)[C@H](CC(=O)O)NC(=O)[C@H](CO)NC(=O)[C@@H](NC(=O)[C@H](Cc1ccccc1)NC(=O)[C@@H](NC(=O)CNC(=O)[C@@H](N)CCC(=O)O)[C@@H](C)O)[C@@H](C)CC)C(=O)N[C@@H](C)C(=O)N[C@@H](CCSC)C(=O)N[C@@H](CC(=O)O)C(=O)N[C@@H](CCCCN)C(=O)N[C@H](C(=O)N[C@@H](CCCCNC(=O)CCCCCCCCCCCCCCC(=O)O)C(=O)N[C@@H](CCC(N)=O)C(=O)N[C@@H](CCC(N)=O)C(=O)N[C@@H](CC(=O)O)C(=O)N[C@@H](Cc1ccccc1)C(=O)N[C@H](C(=O)N[C@@H](CCC(=O)O)C(=O)N[C@@H](Cc1c[nH]c2ccccc12)C(=O)N[C@@H](CC(C)C)C(=O)N[C@@H](CC(C)C)C(=O)N[C@@H](C)C(=O)N[C@@H](CCC(N)=O)C(=O)N[C@@H](CCCCN)C(=O)N1CCC[C@H]1C(=O)N[C@@H](CO)C(=O)N[C@@H](CO)C(=O)NCC(=O)N[C@@H](C)C(=O)N1CCC[C@H]1C(=O)N1CCC[C@H]1C(=O)N1CCC[C@H]1C(=O)N[C@@H](CO)C(=O)O)C(C)C)[C@@H](C)CC` [AT746] (H-EGTFISDYAIAMDKIK(C16 diacid)QQDFVEWLLAQKPSSGAPPPS-OH; N-terminus assumed): the Visual appearance entry in data set [1] (1 mg/ml, TFA, Phosphate (7.4)) is “Clear”. The “Avr lag time (h)” value in data set [2] (1 mg/ml, TFA, Phosphate (7.4)) is listed as “fnd (Fnd = fibrils not detected within experiment time (96 hours) with agitation.)”.

For the molecule `CCCC[C@H](NC(=O)C(C)(C)NC(=O)[C@@H](NC(=O)[C@H](CO)NC(=O)[C@H](Cc1ccc(O)cc1)NC(=O)[C@H](CCC(=O)O)NC(=O)[C@H](CO)NC(=O)[C@@H](NC(=O)[C@H](Cc1ccccc1)NC(=O)[C@@H](NC(=O)CNC(=O)CCCC(=O)O)[C@@H](C)O)[C@@H](C)CC)[C@@H](C)CC)C(=O)N[C@@H](CCC(=O)O)C(=O)N[C@@H](CCCCN)C(=O)N[C@H](C(=O)N[C@@H](CCCCNC(=O)COCCOCCNC(=O)COCCOCCNC(=O)CC[C@H](NC(=O)CCCCCCCCCCCCCCCCC(=O)O)C(=O)O)C(=O)N[C@@H](CCC(N)=O)C(=O)N[C@@H](CCC(N)=O)C(=O)N[C@@H](CCC(=O)O)C(=O)N[C@@H](Cc1ccccc1)C(=O)N[C@H](C(=O)N[C@@H](CCC(=O)O)C(=O)N[C@@H](Cc1c[nH]c2ccccc12)C(=O)N[C@@H](CC(C)C)C(=O)N[C@@H](CC(C)C)C(=O)N[C@@H](C)C(=O)N[C@@H](CCC(N)=O)C(=O)N[C@@H](CCCCN)C(=O)N1CCC[C@H]1C(=O)N[C@@H](CO)C(=O)N[C@@H](CO)C(=O)NCC(=O)N[C@@H](C)C(=O)N1CCC[C@H]1C(=O)N1CCC[C@H]1C(=O)N1CCC[C@H]1C(=O)N[C@@H](CO)C(=O)O)C(C)C)[C@@H](C)CC` [AT706] (Glutaryl-GTFISEYSI[Aib][Nle]EKIK([AEEA-AEEA-γGlu-C18 diacid])QQEFVEWLLAQKPSSGAPPPS-OH), the Visual appearance result in data set [1] (1 mg/ml, TFA, Phosphate (7.4)) was “Clear”; in data set [1] (7.5 mg/ml, Na, MilliQ (8)) it was “Clear”; in data set [1] (15 mg/ml, Na, MilliQ (8)), “Clear”. Also, the “Avr lag time (h)” value is on record as “fnd (Fnd = fibrils not detected within experiment time (96 hours) with agitation.)” in data set [2] (1 mg/ml, TFA, Phosphate (7.4)); “fnd (Fnd = fibrils not detected within experiment time (96 hours) with agitation.)” in data set [2] (7.5 mg/ml, Na, MilliQ (8)); “fnd (Fnd = fibrils not detected within experiment time (96 hours) with agitation.)” in data set [2] (15 mg/ml, Na, MilliQ (8)).

In the case of `CC[C@H](C)[C@H](NC(=O)[C@H](CO)NC(=O)[C@H](Cc1ccc(O)cc1)NC(=O)[C@H](CC(=O)O)NC(=O)[C@H](CO)NC(=O)[C@@H](NC(=O)[C@H](Cc1ccccc1)NC(=O)[C@@H](NC(=O)CNC(=O)[C@@H](N)CCC(=O)O)[C@@H](C)O)[C@@H](C)CC)C(=O)N[C@@H](C)C(=O)N[C@@H](CCSC)C(=O)N[C@@H](CC(=O)O)C(=O)N[C@@H](CCCCN)C(=O)N[C@H](C(=O)N[C@@H](Cc1c[nH]cn1)C(=O)N[C@@H](CCC(N)=O)C(=O)N[C@@H](CCC(N)=O)C(=O)N[C@@H](CC(=O)O)C(=O)N[C@@H](Cc1ccccc1)C(=O)N[C@H](C(=O)N[C@@H](CCC(=O)O)C(=O)N[C@@H](Cc1c[nH]c2ccccc12)C(=O)N[C@@H](CC(C)C)C(=O)N[C@@H](CC(C)C)C(=O)N[C@@H](C)C(=O)N[C@@H](CCC(N)=O)C(=O)N[C@@H](CCCCN)C(=O)N1CCC[C@H]1C(=O)N[C@@H](CO)C(=O)N[C@@H](CO)C(=O)NCC(=O)N[C@@H](C)C(=O)N1CCC[C@H]1C(=O)N1CCC[C@H]1C(=O)N1CCC[C@H]1C(=O)N[C@@H](CO)C(=O)N[C@@H](CCCCNC(=O)CCCCCCCCCCCCCCC(=O)O)C(=O)O)C(C)C)[C@@H](C)CC` [AT744] (H-EGTFISDYSIAMDKIHQQDFVEWLLAQKPSSGAPPPSK(C16 diacid)-OH; N-terminus assumed), the Visual appearance result in data set [1] (1 mg/ml, TFA, Phosphate (7.4)) is “Clear”. In addition, the “Avr lag time (h)” value in data set [2] (1 mg/ml, TFA, Phosphate (7.4)) is recorded as “fnd (Fnd = fibrils not detected within experiment time (96 hours) with agitation.)”.
